PMC9545004, “Transglutaminase 2 affinity and enzyme‐substrate intermediate stability as determining factors for T‐cell responses to gluten peptides in celiac disease” (European Journal of Immunology, 2022)
No end group written: not given here. *: point of attachment. FITC = O=C1OC2(c3ccc(O)cc3Oc3cc(O)ccc32)c2ccc(NC(=S)*)cc21; Ahx = NCCCCCC(=O)O

Columns and labels:
[1] = target: T1, Recombinant human TG2 (Homo sapiens, UniProt P21980); test: TG2 enzyme kinetic assay, GDH-coupled ammonia release; assay type: biochemical; details: for Km / kcat / kcat/Km: GDH-coupled, MOPS pH 7.2, TG2 50 µg/mL, 37°C, A340; for Km / kcat: mean and SD from three independent experiments
T1 construct: His-tag (C); made in house; host or cells: Sf+ express insect cells (pACAB3 vector)
T1 sequence (P21980 1-687): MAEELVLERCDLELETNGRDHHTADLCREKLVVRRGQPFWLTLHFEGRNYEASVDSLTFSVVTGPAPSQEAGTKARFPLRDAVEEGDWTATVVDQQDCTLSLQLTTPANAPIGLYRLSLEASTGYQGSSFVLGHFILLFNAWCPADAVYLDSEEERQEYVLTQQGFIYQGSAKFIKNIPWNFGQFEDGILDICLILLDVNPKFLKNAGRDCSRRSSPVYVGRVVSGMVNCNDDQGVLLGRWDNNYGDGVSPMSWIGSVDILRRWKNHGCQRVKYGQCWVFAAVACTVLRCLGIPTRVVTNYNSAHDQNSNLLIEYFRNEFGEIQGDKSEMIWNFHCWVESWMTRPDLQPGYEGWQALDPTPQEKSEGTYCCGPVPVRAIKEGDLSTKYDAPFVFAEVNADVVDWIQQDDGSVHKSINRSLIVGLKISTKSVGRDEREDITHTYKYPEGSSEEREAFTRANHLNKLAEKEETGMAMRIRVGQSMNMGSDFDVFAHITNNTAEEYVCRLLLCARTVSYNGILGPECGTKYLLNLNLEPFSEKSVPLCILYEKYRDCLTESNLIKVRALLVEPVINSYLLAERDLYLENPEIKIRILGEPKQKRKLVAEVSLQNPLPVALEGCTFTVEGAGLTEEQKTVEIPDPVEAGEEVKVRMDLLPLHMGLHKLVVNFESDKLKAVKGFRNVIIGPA
Excerpt: To test the influence of substrate affinity for TG2 on B‐cell uptake, we determined kinetic parameters for gluten peptides harboring the essential TG2 targeted glutamine residue within the DQ2.5‐glia‐α2, DQ2.5‐glia‐ω2, DQ2.5‐glia‐γ1, or DQ2.5‐glia‐γ3 T‐cell epitopes. To directly compare differences in TG2 affinity between the glutamines from the different peptides, we tested 9‐mer peptides harboring only one TG2 targeted glutamine residue.
Recombinant human TG2 with a C‐terminal His‐tag was expressed in Sf+ express insect cells. Briefly, human TGM2 was cloned into the pACAB3 vector, and protein was expressed for 3 days followed by lysis and purification by nickel‐nitrilotriacetic acid affinity chromatography as previously described.
Kinetic parameters for the 9‐mer peptides α2, ω2, γ1, and γ3 were measured using a coupled GDH catalyzed reaction assay performed in microtiter plates as previously described. Here, the following components were used: (1) a 5× stock MOPS buffer consisting of 1 M 3‐(N‐morpholino)propanesulfonic acid pH 7.2, 25 mM CaCl2, 5 mM ETDA, and 50 mM α‐ketoglutarate (Sigma Aldrich) in distilled water; (2) nicotinamide adenine dinucleotide hydrogen (NADH, Sigma–Aldrich); (3) GDH from beef liver (Roche); (4) gluten peptides; (5) recombinant TG2 solved in 1mM EDTA/Tris‐buffered saline. Components 1–4 were mixed in PCR‐strips (Axygen) to give final concentrations of 1x stock buffer, 1 mM NADH, 0.125 U/µL GDH, and various peptide concentrations. The mixture was preincubated in the dark for 15 min, and the reaction was started by the addition of recombinant TG2 (final concentration of 50 µg/mL) followed by transfer to a microtiter plate (Thermo Scientific). Absorbance (340 nm) was measured continuously for 50 min at 37°C using a Victor 3V Multi‐Label Microplate Reader (Perkin Elmer‐Wallac). Initial reaction velocities were calculated from the linear area of the absorbance curves by determining the change in absorbance over time compared to the change from an NADH standard curve. The Michaelis constants (K M) and turnover rates (k cat) were calculated using the k cat equation analysis tool in GraphPad Prism 8.3.0 (GraphPad Software).

[2] = target: T2, Recombinant human transglutaminase 2 (human, UniProt P21980 1-687)
T2 construct: human transglutaminase 2 (TGM2), cloned into the pACAB3 vector; Used enzymatically active with CaCl2; also called TG2; recombinant TG2
T2 sequence (looked up): T1 sequence (P21980 1-687)

[3] = target: T2, Recombinant human transglutaminase 2; test: flow cytometry on cells; recombinant TG2 (3 µg/mL), 5 µM FITC peptide and 2 mM CaCl2 in RPMI with A20 cells expressing the TG2-specific BCR 679-14-E06, 37°C; stopped with EDTA, cells washed and fixed; cell-bound FITC peptide read as delta MFI against A20 cells with the non-TG2-specific BCR 693-2-F02; details: both partners purified

Ac‐QP Q QPYPQQ [γ3]
Km [1]: 130 ± 30 µM | kcat [1]: 23.2±1.0 min^–1

PQP Q LPYPQ [α2]
kcat/Km [1]: 197 min^–1/mM | Km [1]: 130 ± 20 µM | kcat [1]: 25.7±0.8 min^–1

PQP Q QPFPW [ω2]
kcat/Km [1]: 276 min^–1/mM | Km [1]: 100 ± 20 µM | kcat [1]: 27.6±1.0 min^–1

Ac‐QQSFP Q QQR [γ1]
kcat/Km [1]: 100 min^–1/mM | Km [1]: 240 ± 20 µM | kcat [1]: 24.0±0.7 min^–1 | affinity to TG2 (Km), in words ([1]; native 9-mer peptides, compared with the other 9-mers): twofold lower affinity to TG2

PQPQLPYPQ [α2 9-mer gliadin peptide (native, harbouring the DQ2.5-glia-α2 epitope)]
Km of TG2 turnover, GDH-coupled ammonia release assay (formation of the thioester intermediate complex), 37°C, pH 7.2 [2]: 0.13 mM

Ac-QPQQPYPQQ
Km of TG2 turnover, GDH-coupled ammonia release assay (formation of the thioester intermediate complex), 37°C, pH 7.2 [2]: 0.13 mM

B1: FITC-labeled ω2 9-mer gliadin peptide (native) (peptide)
peptide: {FITC-Ahx}-PQPQQPFPW
notes: also called FITC-ω2; source: synthetic peptide
binding result [3]: binds

Ac-QQSFPQQQR
Km of TG2 turnover, GDH-coupled ammonia release assay (formation of the thioester intermediate complex), 37°C, pH 7.2 [2]: 0.24 mM

PQPQQPFPW [ω2 9-mer gliadin peptide (native, harbouring the DQ2.5-glia-ω2 epitope)]
Km of TG2 turnover, GDH-coupled ammonia release assay (formation of the thioester intermediate complex), 37°C, pH 7.2 [2]: 0.1 mM

B2: FITC-labeled α2 9-mer gliadin peptide (native) (peptide)
peptide: {FITC-Ahx}-PQPQLPYPQ
notes: also called FITC-α2; source: synthetic peptide
binding result [3]: binds

B3: FITC-labeled γ3 9-mer gliadin peptide (native) (peptide)
peptide: {FITC-Ahx}-QPQQPYPQQ
notes: native 9-mer from γ-gliadin; The unlabelled peptide is N-terminally acetylated; also called FITC-γ3; source: synthetic peptide
binding result [3]: binds

B4: FITC-labeled γ1 9-mer gliadin peptide (native) (peptide)
peptide: {FITC-Ahx}-QQSFPQQQR
notes: native 9-mer from γ-gliadin; The unlabelled peptide is N-terminally acetylated; also called FITC-γ1; source: synthetic peptide
binding result [3]: binds
